Experimental data reported in patent publication US20250170239A1, “CELLULAR REPROGRAMMING BY TARGETING THE GOLGI APPARATUS” (MUSC Foundation for Research Development, priority 2023, published 2025).

Legend:
[1] = tested on: Tet; settings: CD8+ T cells with or without 0.5 mM GYY4137
Description: On day 3, the cells were collected and TET activity was assessed using nuclear protein extract from CD8+ T cells treated with or without 0.5 mM GYY4137.

[2] = tested on: Cbs-KO T cells; experiment: Cbs-KO T cells activated with anti-CD3/anti-CD28 with or without H2S
[3] = tested on: Pmel CD8+ T cells; experiment: Re-stimulation with gp100 and FACS cytokine analysis; type: cell-based, mouse; settings: 0.5 mM GYY4137 3 days, re-stimulated with gp100
Source text: The impact of H2S on T cell effector function was next determined. Pmel CD8+ T cells were activated and expanded with standard culture conditions or with the addition of the H2S donor and subsequently re-stimulated with gp100 cognate antigen (FIG. 14E). […] Given the importance of protein translation in maintaining a robust anti-tumor response and the repression of T cell translation that occurs in the TME (Riesenberg B. P., et al., 2022, bioRxiv, 2022.01.31.478547; Marchingo J. M., et al., 2022, Cell Mol Immunol., 19(3):303-315), it was determined if H2S influences protein translation.

[4] = tested on: Sirt1; settings: H2S-treated vs control T cells
Description: (FIG. 18C) NAD+ and nicotinamide quantification from metabolomics dataset. (FIG. 18D) SIRT1 deacetylase activity in activated Pmel T cells (means of normalized OD values). (FIGS. 18E and 18F) Pmel T cells were activated with gp100 for 3 days in the presence of vehicle, GYY4137 (0.5 mM), or GYY4137+sirt1 inhibitor EX527 (10 μM). (FIG. 18E) Nuclear and cytoplasmic protein fractions were isolated and western blot analysis was performed to determine relative expression of nuclear and cytoplasmic Foxo1 (n=3). (FIG. 18F) Expression of CD62L and CD44 analyzed by FACS (n=3). (FIG. 18G) Splenocytes from wildtype and Cbs-knockout mice+/−GYY4137 activated with anti-CD3 and anti-CD28 antibodies followed by intranuclear staining for Foxo1. (FIG. 18H) Pmel T cells activated and expanded for metabolic flux analysis. Quantification of oxygen consumption rate (OCR), spare respiratory capacity (SRC), maximal respiration, and basal respiration (n=10 experimental replicates representative of 3 separate experiments). (FIG. 18I) Pmel T cells activated and expanded to day 5 for characterization of mitochondria using FACS, quantified by MFI values for mitoFM Deep Red, TMRM, and mitoSOX dyes (n=4). […] Shown is the quantification of mean oxygen consumption rate (OCR), spare respiratory capacity (SRC), maximal respiration, and basal respiration.

[5] = tested on: TILs isolated from B16-F10 tumors; settings: expanded +/− GYY4137
Description: To obtain tumor-infiltrating T cells (TILs) from subcutaneously established solid B16-F10 melanoma-bearing mice, tumors were excised, chopped finely using tweezers and scissors, and then digested with 2 mg/ml collagenase type IV (Stemcell Technologies, Vancouver, BC) for 45 min. The tumors were filtered through […] (BD Biosciences, San Jose, CA). The cell suspension was washed in culture medium twice by centrifugation at 1500 rpm for 10 min at 4° C. After the second wash, the cells were re-suspended in 6 ml PBS and layered carefully over 3 ml Ficoll-paque (GE Healthcare) followed by centrifugation at 1500 rpm for 30 min at room temperature. The enriched TILs obtained at the interface as a thin buffy layer were washed with PBS twice and finally re-suspended in FACS staining buffer for further staining procedures.

[6] = tested on: Pmel T cells
Description: (FIG. 18C) NAD+ and nicotinamide quantification from metabolomics dataset. (FIG. 18D) SIRT1 deacetylase activity in activated Pmel T cells (means of normalized OD values). (FIGS. 18E and 18F) Pmel T cells were activated with gp100 for 3 days in the presence of vehicle, GYY4137 (0.5 mM), or GYY4137+sirt1 inhibitor EX527 (10 μM). (FIG. 18E) Nuclear and cytoplasmic protein fractions were isolated and western blot analysis was performed to determine relative expression of nuclear and cytoplasmic Foxo1 (n=3). (FIG. 18F) Expression of CD62L and CD44 analyzed by FACS (n=3). (FIG. 18G) Splenocytes from wildtype and Cbs-knockout mice+/−GYY4137 activated with anti-CD3 and anti-CD28 antibodies followed by intranuclear staining for Foxo1. (FIG. 18H) Pmel T cells activated and expanded for metabolic flux analysis. Quantification of oxygen consumption rate (OCR), spare respiratory capacity (SRC), maximal respiration, and basal respiration (n=10 experimental replicates representative of 3 separate experiments). (FIG. 18I) Pmel T cells activated and expanded to day 5 for characterization of mitochondria using FACS, quantified by MFI values for mitoFM Deep Red, TMRM, and mitoSOX dyes (n=4). (FIG. 18J) Representative confocal microscopy images of mitochondria from control or H2S-treated T cells. (FIG. 18K) Human CD19 CAR-T cells expanded for 3 days with IL2+/−0.5 mM GYY4137 and collected for metabolic flux analysis. Shown is the quantification of mean oxygen consumption rate (OCR), spare respiratory capacity (SRC), maximal respiration, and basal respiration.
Alexa Fluor 488 (anti-Giantin) and Alexa Fluor 647 (anti-TOMM20) fluorescence were imaged in a Zeiss LSM 880 NLO inverted laser scanning confocal microscope (Thornwood, NY) using a 63× 1.4 N.A. plan-apochromat oil immersion lens. Alexa Fluor 488 and Alexa Fluor 647 were excited at 488 nm and 633 nm, respectively. Emitted light was detected with an Airyscan super-resolution detector at BP 495-550 nm for Giantin label and LP 654 nm for TOMM20. Z-stack Airyscan images were processed using the Huygens Professional deconvolution and image analysis software (Scientific Volume Imaging, The Netherland). After images were deconvolved using Huygens' Deconvolution Express (Standard Profile) that determines optimal parameters, 3D surface rendering of deconvolved images with watershed augmentation using Huygens' Surface Renderer was performed.

[7] = tested on: Foxo1; experiment: Nuclear vs cytoplasmic Foxo1 by western blot; type: cell-based, mouse; settings: GYY4137 0.5 mM, 3 days
Description: (FIG. 18C) NAD+ and nicotinamide quantification from metabolomics dataset.
For evaluation of the protein level, cell pellets were washed in PBS and lysed in RIPA buffer (Thermo Fisher Scientific, Waltham, MA), including protease/phosphatase inhibitors, vortexed, and incubated for 20 minutes on ice. Cell lysates were then centrifuged at 12,000 rpm for 15 min at 4° C. The supernatants were collected, and proteins were quantified with a BCA protein assay kit (Thermo Fisher Scientific, Waltham, MA). For immunoblot analyses, 20 μg of protein lysates per sample were denatured in 4× Loading dye and boiled using a heating block at 95 degrees for 10 minutes before loading to SDS gradient gels 4%-20% (Bio-Rad Criterion, 1h runs). Gels were semi-dry transferred onto PVDF, and the membranes were blocked with 3% milk in 0.1% TBST. The membraneNext, the membrane was probed with the following primary antibodies: anti-Prdx4 (Proteintech, 10703-1-AP), anti-eIF2a (Cell Signaling Technology, #9722), or anti-β-Actin (Signaling Technology, #4967L) overnight at 4° C. followed by one-hour incubation with HRP-conjugated secondary antibody (Cell Signaling Technology, Danvers, MA) and using a Clarity Western ECL Substrate (Bio-Rad, Hercules, CA).

[8] = tested on: human CD19 CAR-T cells; settings: 3 days IL2 +/− 0.5 mM GYY4137
Description: Quantification of oxygen consumption rate (OCR), spare respiratory capacity (SRC), maximal respiration, and basal respiration (n=10 experimental replicates representative of 3 separate experiments). […] Shown is the quantification of mean oxygen consumption rate (OCR), spare respiratory capacity (SRC), maximal respiration, and basal respiration. Data shown represent the mean±SEM and were analyzed by two-sided Student's t-test or one-way ANOVA. ns, p-value >0.05; p-value *≤0.05; **≤0.01; ***≤0.001; ****≤0.0001.
Oxygen consumption rate (OCR) and extracellular acidification rate (ECAR) were determined using the Seahorse Xfe96 analyzer (Agilent Technologies, Santa Clara, CA). Briefly, T cells (0.5×10^6/well) were plated on a Cell-Tak coated Seahorse culture plate for 30 min. OCR, a measure of OXPHOS, was analyzed under basal condition, or in response to 1.0 μM oligomycin, 1.0 μM fluoro-carbonyl cyanide phenylhydrazone (FCCP) and 2 μM rotenone, plus 100 nM antimycin A. ECAR, a measure of glycolysis, was measured under basal conditions and in response to glucose (5.5 mM), Oligomycin (1.0 μM), and 2-deoxyglucose (2-DG) (100 mM). All reagents were purchased from Sigma-Aldrich, St. Louis, MO.

C1COCCN1.COc1ccc(P(=S)(S)N2CCOCC2)cc1 (stereo not shown) [GYY4137]
Tet activity [1]: decrease of Tet activity | expression of Foxo1 (intranuclear staining) ([2]; Cbs-KO T cells +/− GYY4137): restored | ER stress (pPERK) ([2]; Cbs-KO T cells, 12 hour Thapsigargin (700 nM)): reduced | Tcm fraction ([2]; H2S added to Cbs-KO T cells): restoration of the Tcm fraction | Granzyme B and CD107 expression [3]: increased levels of cytolytic molecule Granzyme B and CD107 expression | secretion of effector cytokines TNF-α and IFN-γ [3]: enhanced secretion of effector cytokines TNF-α, and IFN-γ | Sirt1 activity [4]: increased Sirt1 activity | GM130 expression [5]: significantly higher GM130 expression | PD1 expression [5]: lower PD1 expression | mitochondrial organization and morphology (confocal) ([6]; control vs H2S-treated): more compact and continuous mitochondria | mitochondrial mass (mitoFM staining) ([6]; expanded to day 5): increased overall mitochondrial mass | mitochondrial membrane potential (TMRM staining) ([6]; expanded to day 5): decreased mitochondrial membrane potential | mitochondrial reactive oxygen species (mitoSOX staining) ([6]; expanded to day 5): decreased mitochondrial reactive oxygen species | nuclear localization of Foxo1 [7]: increased nuclear localization of Foxo1 | SRC [8]: significant increase | maximal respiration [8]: significant increase
